Source: patent publication US11021446B2 (NOVARTIS AG, priority 2013, dated 2021)

The molecules below were run against T1, human Farnesoid X Receptor (FXR) ligand binding domain (GST-FXR LBD) (Homo sapiens, UniProt Q96RI1) (assay: Human GST-FXR LBD co-activator interaction assay (FXR HTRF assay)). Conditions: GST-FXR LBD interaction with biotin-labeled SRC-1 peptide, FRET, response relative to GW4064, read-out: FXR coactivator interaction assay (HTRF).
T1 construct: purchased Invitrogen
T1 sequence (Q96RI1 193-472 isoform Q96RI1-2): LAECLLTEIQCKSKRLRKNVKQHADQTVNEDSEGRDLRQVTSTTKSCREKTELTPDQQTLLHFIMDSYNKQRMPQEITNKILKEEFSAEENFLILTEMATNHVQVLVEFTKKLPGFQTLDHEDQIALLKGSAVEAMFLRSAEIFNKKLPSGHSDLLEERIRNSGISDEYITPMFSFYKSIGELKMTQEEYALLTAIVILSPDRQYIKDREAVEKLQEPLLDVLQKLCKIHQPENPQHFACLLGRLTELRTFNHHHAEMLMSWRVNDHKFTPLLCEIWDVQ
Type: biochemical

SMILES	EC50 [nM]
Cn1nc(C(=O)N(CC(=O)NCC(C)(C)C(=O)O)Cc2ccccc2F)c2c1-c1cc(Cl)ccc1OC2 [Compound 41, 3-(2-(8-chloro-N-(2-fluorobenzyl)-1-methyl-1,4-dihydrochromeno[4,3-c]pyrazole-3-carboxamido)acetamido)-2,2-dimethylpropanoic acid]	4
Cc1ccc2c(c1)-c1c(c(C(=O)N(CC(=O)Nc3cccc(C(=O)O)c3)Cc3ccccc3F)nn1C)CO2 [Compound 5, 3-(2-(N-(2-fluorobenzyl)-1,8-dimethyl-1,4-dihydrochromeno[4,3-c]pyrazole-3-carboxamido)acetamido)benzoic acid]	0.8
Cn1nc(C(=O)N(CC(=O)Nc2cccc(C(=O)O)c2)Cc2ccccc2F)c2c1-c1ccc(Cl)cc1OC2 [Compound 9, 3-(2-(7-chloro-N-(2-fluorobenzyl)-1-methyl-1,4-dihydrochromeno[4,3-c]pyrazole-3-carboxamido)acetamido)benzoic acid]	3.6
Cn1nc(C(=O)N(CC(=O)Nc2cccc(C(=O)O)c2)Cc2ccccc2F)c2c1-c1cc(F)ccc1OC2 [Compound 7, 3-(2-(8-fluoro-N-(2-fluorobenzyl)-1-methyl-1,4-dihydrochromeno[4,3-c]pyrazole-3-carboxamido)acetamido)benzoic acid]	1
Cn1nc(C(=O)N(CCNc2cc(C(=O)O)ccc2F)Cc2ccccc2F)c2c1-c1ccccc1OC2 [Compound 70, 4-fluoro-3-((2-(N-(2-fluorobenzyl)-1-methyl-1,4-dihydrochromeno[4,3-c]pyrazole-3-carboxamido)ethyl)amino)benzoic acid]	81
Cn1nc(C(=O)N(CC(=O)NCC2(C(=O)O)CC2)Cc2ccccc2F)c2c1-c1cc(Cl)ccc1OC2 [Compound 42, 1-((2-(8-chloro-N-(2-fluorobenzyl)-1-methyl-1,4-dihydrochromeno[4,3-c]pyrazole-3-carboxamido)acetamido)methyl) cyclopropanecarboxylic acid]	2.5
Cn1nc(C(=O)N(CCNc2cc(C(=O)O)ccc2F)Cc2ccccc2)c2c1-c1cc(F)c(F)cc1OC2 [Compound 74, 3-((2-(N-benzyl-7,8-difluoro-1-methyl-1,4-dihydrochromeno[4,3-c]pyrazole-3-carboxamido)ethyl)amino)-4-fluorobenzoic acid]	55
Cn1nc(C(=O)N(CCOc2c(F)cc(C(=O)O)cc2F)Cc2ccccc2F)c2c1-c1cc(F)ccc1OC2 [Compound 53, 3,5-difluoro-4-(2-(8-fluoro-N-(2-fluorobenzyl)-1-methyl-1,4-dihydrochromeno[4,3-c]pyrazole-3-carboxamido)ethoxy)benzoic acid]	17
Cn1nc(C(=O)N(CC(=O)Nc2cccc(C(=O)O)c2)CC2CCCC2)c2c1-c1cc(Cl)ccc1OC2 [Compound 37, 3-(2-(8-chloro-N-(cyclopentylmethyl)-1-methyl-1,4-dihydrochromeno[4,3-c]pyrazole-3-carboxamido)acetamido)benzoic Acid]	24
Cn1nc(C(=O)N(CC(=O)Nc2cc(C(=O)O)ccc2F)Cc2ccccc2F)c2c1-c1ccccc1OC2 [Compound 16, 4-fluoro-3-(2-(N-(2-fluorobenzyl)-1-methyl-1,4-dihydrochromeno[4,3-c]pyrazole-3-carboxamido)acetamido)benzoic acid]	3.4

Other lines, results leading:

EC50 [nM]	SMILES
22	Cn1nc(C(=O)N(CCNc2cc(C(=O)O)ccc2F)Cc2ccccc2)c2c1-c1cc(F)ccc1OC2 [Compound 71, 3-((2-(N-benzyl-8-fluoro-1-methyl-1,4-dihydrochromeno[4,3-c]pyrazole-3-carboxamido)ethyl)amino)-4-fluorobenzoic acid]
0.38	Cn1nc(C(=O)N(CC(=O)Nc2cc(C(=O)O)ccc2F)Cc2cccc(F)c2)c2c1-c1cc(Cl)ccc1OC2 [Compound 28, 3-(2-(8-chloro-N-(3-fluorobenzyl)-1-methyl-1,4-dihydrochromeno[4,3-c]pyrazole-3-carboxamido)acetamido)-4-fluorobenzoic acid]
5	Cn1nc(C(=O)N(Cc2cccc(F)c2)Cc2ccc(C(=O)O)c(F)c2)c2c1-c1cc(Cl)ccc1OC2 [Compound 90, 4-((8-chloro-N-(3-fluorobenzyl)-1-methyl-1,4-dihydrochromeno[4,3-c]pyrazole-3-carboxamido)methyl)-2-fluorobenzoic acid]
5.5	Cn1nc(C(=O)N(CCNc2cc(C(=O)O)ccc2F)Cc2ccccc2F)c2c1-c1cc(Cl)ccc1OC2 [Compound 101, 3-((2-(8-chloro-N-(2-fluorobenzyl)-1-methyl-1,4-dihydrochromeno[4,3-c]pyrazole-3-carboxamido)ethyl)amino)-4-fluorobenzoic Acid]
13	Cn1nc(C(=O)N(CCOc2ccc(C(=O)O)cc2F)Cc2ccccc2)c2c1-c1cc(Cl)ccc1OC2 [Compound 55, 4-(2-(N-benzyl-8-chloro-1-methyl-1,4-dihydrochromeno[4,3-c]pyrazole-3-carboxamido)ethoxy)-3-fluorobenzoic Acid]
9.8	Cn1nc(C(=O)N(CCOc2ccc(C(=O)O)cc2C(F)(F)F)Cc2ccccc2F)c2c1-c1cc(Cl)ccc1OC2 [Compound 51, 4-(2-(8-chloro-N-(2-fluorobenzyl)-1-methyl-1,4-dihydrochromeno[4,3-c]pyrazole-3-carboxamido)ethoxy)-3-(trifluoromethyl)benzoic acid]
14	Cn1nc(C(=O)N(Cc2ccc(C(=O)O)cc2)Cc2cc(F)cc(F)c2)c2c1-c1cc(F)ccc1OC2 [Compound 83, 4-((N-(3,5-difluorobenzyl)-8-fluoro-1-methyl-1,4-dihydrochromeno[4,3-c]pyrazole-3-carboxamido)methyl)benzoic acid]
15	Cn1nc(C(=O)N(Cc2ccc(C(=O)O)cc2)Cc2cncc(F)c2)c2c1-c1cc(Cl)ccc1OC2 [Compound 88, 4-((8-chloro-N-((5-fluoropyridin-3-yl)methyl)-1-methyl-1,4-dihydrochromeno[4,3-c]pyrazole-3-carboxamido)methyl)benzoic acid]
28	Cn1nc(C(=O)N(Cc2ccc(C(=O)O)nc2)Cc2cccc(F)c2)c2c1-c1cc(Cl)ccc1OC2 [Compound 87, 5-((8-chloro-N-(3-fluorobenzyl)-1-methyl-1,4-dihydrochromeno[4,3-c]pyrazole-3-carboxamido)methyl)picolinic acid]
8.3	Cn1nc(C(=O)N(Cc2ccc(C(=O)O)cc2)Cc2cc(F)cc(F)c2)c2c1-c1cc(Cl)ccc1OC2 [Compound 78, 4-((8-chloro-N-(3,5-difluorobenzyl)-1-methyl-1,4-dihydrochromeno[4,3-c]pyrazole-3-carboxamido)methyl)benzoic acid]
28	Cn1nc(C(=O)N(CCOc2ccc(C(=O)O)cc2F)Cc2cccc(F)c2)c2c1-c1cc(F)c(F)cc1OC2 [Compound 59, 4-(2-(7,8-difluoro-N-(3-fluorobenzyl)-1-methyl-1,4-dihydrochromeno[4,3-c]pyrazole-3-carboxamido)ethoxy)-3-fluorobenzoic acid]
32	Cn1nc(C(=O)N(Cc2ccccc2F)Cc2ccc(C(=O)O)cc2F)c2c1-c1cc(F)ccc1OC2 [Compound 94, 3-fluoro-4-((8-fluoro-N-(2-fluorobenzyl)-1-methyl-1,4-dihydrochromeno[4,3-c]pyrazole-3-carboxamido)methyl)benzoic acid]
0.53	Cc1cc(C(=O)O)cc(C)c1OCCN(Cc1ccccc1F)C(=O)c1nn(C)c2c1COc1ccc(Cl)cc1-2 [Compound 47, 4-(2-(8-chloro-N-(2-fluorobenzyl)-1-methyl-1,4-dihydrochromeno[4,3-c]pyrazole-3-carboxamido)ethoxy)-3,5-dimethylbenzoic acid]
0.6	Cc1ccc(C(=O)O)cc1NC(=O)CN(Cc1ccccc1F)C(=O)c1nn(C)c2c1COc1ccc(Cl)cc1-2 [Compound 30]
0.74	Cn1nc(C(=O)N(CC(=O)Nc2cc(C(=O)O)ccc2F)Cc2ccccc2)c2c1-c1cc(F)ccc1OC2 [Compound 32, 3-(2-(N-benzyl-8-fluoro-1-methyl-1,4-dihydrochromeno[4,3-c]pyrazole-3-carboxamido)acetamido)-4-fluorobenzoic acid]
61	Cn1nc(C(=O)N(CCOc2cc(C(=O)O)ccc2F)Cc2ccccc2F)c2c1-c1cc(Cl)ccc1OC2 [Compound 48, 3-(2-(8-chloro-N-(2-fluorobenzyl)-1-methyl-1,4-dihydrochromeno[4,3-c]pyrazole-3-carboxamido)ethoxy)-4-fluorobenzoic acid]
